Results from US7923438B2 (priority 2006, dated 2011).
Where two headings read alike, the source gives them in different places.

Key:
Assay type in all cases: cell-based
[1] = tested on: Mycobacterium smegmatis (FH 6498); experiment: Serial dilution test for MIC, Mueller-Hinton broth
[2] = tested on: Nocardia brasiliensis (ATCC 19296); experiment: microbe, parasite or virus in culture
[3] = tested on: Mycobacterium phlei (ATCC 1298); experiment: microbe, parasite or virus in culture
[4] = tested on: Corynebacterium diphtheriae (ATCC 27010); experiment: microbe, parasite or virus in culture
[5] = tested on: S. aureus (control strain); experiment: Serial dilution test for MIC, Mueller-Hinton broth (control strain)
[6] = tested on: Nocardia abscessus (BAA 279); experiment: microbe, parasite or virus in culture
[7] = serial dilution, 48 hours at 37° C., approximately 10 Ex 6 CFU/ml
[8] = 6.25 μg per disc (17 nmol per disc), 48 hrs at 37° C.

Compound | minimum inhibitory concentration (MIC), Mycobacterium smegmatis (FH 6498) [1] | Inhibition zone size, Nocardia brasiliensis (ATCC 19296) [2] | Inhibition zone size, Mycobacterium phlei (ATCC 1298) [3] | Inhibition zone size, Corynebacterium diphtheriae (ATCC 27010) [4] | minimum inhibitory concentration (MIC), S. aureus (control strain) [5] | Inhibition zone size, Nocardia abscessus (BAA 279) [6] | further results
CCCCCCCCCCCCCCCCOP1(=O)OCC2COC(=O)C2=C(CCC)O1 (stereo not shown) [Cyclipostin T] |  |  |  |  |  |  | minimum inhibitory concentration (MIC), Mycobacterium smegmatis (FH 6498) [1, 7]: <0.5; zone of inhibition at 20 µg/disc ([2]; Nocardia brasiliensis, ATCC19296, 20 μg per disc, 48 hrs at 37° C., read-out: Inhibition zone size, Nocardia brasiliensis (ATCC 19296)): 38 mm; zone of inhibition at 20 µg/disc ([3]; Mycolicibacterium phlei, ATCC1298, 20 μg per disc, 48 hrs at 37° C., read-out: Inhibition zone size, Mycobacterium phlei (ATCC 1298)): 30 mm; zone of inhibition at 20 µg/disc ([4]; Corynebacterium diphtheriae, ATCC27010, 20 μg per disc, 48 hrs at 37° C., read-out: Inhibition zone size, Corynebacterium diphtheriae (ATCC 27010)): 12 mm; minimum inhibitory concentration (MIC), S. aureus (control strain) [5, 7]: >64; zone of inhibition at 20 µg/disc ([6]; Nocardia abscessus, BAA279, 20 μg per disc, 48 hrs at 37° C., read-out: Inhibition zone size, Nocardia abscessus (BAA 279)): 9 mm
CC1(C)S[C@@H]2[C@H](NC(=O)Cc3ccccc3)C(=O)N2[C@H]1C(=O)O [Penicillin G, reference compound] |  |  |  |  |  |  | Inhibition zone size, Nocardia brasiliensis (ATCC 19296) [2, 8]: 0 mm; Inhibition zone size, Mycobacterium phlei (ATCC 1298) [3, 8]: 0 mm; Inhibition zone size, Corynebacterium diphtheriae (ATCC 27010) [4, 8]: 33 mm; Inhibition zone size, Nocardia abscessus (BAA 279) [6, 8]: 16 mm
CCCCCCCCCCCCCCCCOP1(=O)OC[C@H]2COC(=O)C2=C(C)O1 (stereo partly shown) [Cyclipostin P] | <0.5 | 47 mm | 35 mm | 10 mm | >64 | 28 mm | 
CCCCCCCCCCCCCCCOP1(=O)OC[C@H]2COC(=O)C2=C(C)O1 (stereo partly shown) [Cyclipostin R] | <0.5 |  |  |  | >64 |  | 
CO[C@H]1/C=C/O[C@@]2(C)Oc3c(C)c(O)c4c(O)c(c(/C=N/N5CCN(C)CC5)c(O)c4c3C2=O)NC(=O)/C(C)=C\C=C\[C@H](C)[C@H](O)[C@@H](C)[C@@H](O)[C@@H](C)[C@H](OC(C)=O)[C@@H]1C [Rifampicin, reference compound] |  |  |  |  |  |  | zone of inhibition at 30 µg/disc ([2]; Nocardia brasiliensis, ATCC19296, 30 μg per disc (36 nmol per disc), 48 hrs at 37° C., read-out: Inhibition zone size, Nocardia brasiliensis (ATCC 19296)): 10 mm; zone of inhibition at 30 µg/disc ([3]; Mycolicibacterium phlei, ATCC1298, 30 μg per disc (36 nmol per disc), 48 hrs at 37° C., read-out: Inhibition zone size, Mycobacterium phlei (ATCC 1298)): 55 mm; zone of inhibition at 30 µg/disc ([4]; Corynebacterium diphtheriae, ATCC27010, 30 μg per disc (36 nmol per disc), 48 hrs at 37° C., read-out: Inhibition zone size, Corynebacterium diphtheriae (ATCC 27010)): 47 mm; zone of inhibition at 30 µg/disc ([6]; Nocardia abscessus, BAA279, 30 μg per disc (36 nmol per disc), 48 hrs at 37° C., read-out: Inhibition zone size, Nocardia abscessus (BAA 279)): 12 mm
CCCC1=C2C(=O)OC[C@@H]2COP(=O)(OCCCCCCCCCCCCCC(C)C)O1 (stereo partly shown) [Cyclipostin T2] | <0.5 | 39 mm | 47 mm | 20 mm | >64 | 10 mm | 
